{
  "source": "patent US20250000856A1",
  "about": "“CRYSTALLINE FORMS OF N-((1R,3S)-3-(4-ACETYLPIPERAZIN-1-YL)CYCLOHEXYL)-4-FLUORO-7-METHYL-1H-INDOLE-2-CARBOXAMIDE” (Epizyme, Inc., priority 2021, published 2025)",
  "test": "Pharmacokinetics of Free Base Forms I and II in male Beagle dogs after a single oral dose; Compound 1 plasma concentrations by LC-MS/MS",
  "format": "in vivo",
  "protocol": "In this study, male Beagle dogs were administered Free Base Form I and Free Base Form II at 25 mg/kg and 100 mg/kg (0.5% carboxymethylcellulose (CMC) and 0.1% Tween in water at pH 7). The dogs were fasted overnight and then offered food one hour prior to oral administration of the form. Blood samples were collected at predetermined timepoints up to 48 hours. Compound 1 plasma concentrations were determined by liquid chromatography with tandem mass spectrometry (LC-MS/MS) methods.",
  "key": {"[1]": {"conditions": "25 mg/kg dose, versus Free Base Form I"}, "[2]": {"conditions": "100 mg/kg dose, versus Free Base Form I"}},
  "data": [
    {"smiles": "CC(=O)N1CCN([C@H]2CCC[C@@H](NC(=O)c3cc4c(F)ccc(C)c4[nH]3)C2)CC1", "note": "[Free Base Form II, N-((1R,3S)-3-(4-acetylpiperazin-1-yl)cyclohexyl)-4-fluoro-7-methyl-1H-indole-2-carboxamide]", "values": [
      {"measurement": "Compound 1 AUC0-inf greater than that of Free Base Form I", "setting": "[1]", "value": "~20", "unit": "%"},
      {"measurement": "Compound 1 Cmax greater than that of Free Base Form I", "setting": "[1]", "value": "~40", "unit": "%"},
      {"measurement": "AUC0-inf greater than that of Free Base Form I", "setting": "[2]", "value": 3.1, "unit": "fold"},
      {"measurement": "Cmax greater than that of Free Base Form I", "setting": "[2]", "value": 1.8, "unit": "fold"},
      {"measurement": "exposure in dogs compared with Free Base Form I", "setting": "oral 25 and 100 mg/kg, difference dose-dependent", "value": "unexpectedly greater exposure"}
    ]}
  ]
}
